# Assay results reported in patent US20090298820A1, “3-SUBSTITUTED-1H-PYRROLO[2,3-B]PYRIDINE AND 3-SUBSTITUTED-1H-PYRROLO[3,2-B]PYRIDINE COMPOUNDS, THEIR USE AS MTOR KINASE AND PI3 KINASE INHIBITORS, AND THEIR SYNTHESES” (Wyeth, priority 2008, published 2009).
# Columns and labels:
# Assay type in all cases: biochemical
# [1] = biological target: PI3Kα (Homo sapiens, UniProt P42336); assay: PI3K-alpha fluorescence polarization assay; conditions: read-out: PI3Kα Median IC50
# [2] = biological target: PI3Kγ (Homo sapiens, UniProt P48736); assay: PI3K-gamma fluorescence polarization assay; conditions: read-out: PI3Kγ Median IC50
# [3] = biological target: mTOR (Homo sapiens, UniProt P42345); assay: mTOR enzyme assay (DELFIA format, His6-S6K substrate); conditions: read-out: mTOR Kinase Median IC50
# Sequence of PI3Kγ (P48736 whole entry, species assumed): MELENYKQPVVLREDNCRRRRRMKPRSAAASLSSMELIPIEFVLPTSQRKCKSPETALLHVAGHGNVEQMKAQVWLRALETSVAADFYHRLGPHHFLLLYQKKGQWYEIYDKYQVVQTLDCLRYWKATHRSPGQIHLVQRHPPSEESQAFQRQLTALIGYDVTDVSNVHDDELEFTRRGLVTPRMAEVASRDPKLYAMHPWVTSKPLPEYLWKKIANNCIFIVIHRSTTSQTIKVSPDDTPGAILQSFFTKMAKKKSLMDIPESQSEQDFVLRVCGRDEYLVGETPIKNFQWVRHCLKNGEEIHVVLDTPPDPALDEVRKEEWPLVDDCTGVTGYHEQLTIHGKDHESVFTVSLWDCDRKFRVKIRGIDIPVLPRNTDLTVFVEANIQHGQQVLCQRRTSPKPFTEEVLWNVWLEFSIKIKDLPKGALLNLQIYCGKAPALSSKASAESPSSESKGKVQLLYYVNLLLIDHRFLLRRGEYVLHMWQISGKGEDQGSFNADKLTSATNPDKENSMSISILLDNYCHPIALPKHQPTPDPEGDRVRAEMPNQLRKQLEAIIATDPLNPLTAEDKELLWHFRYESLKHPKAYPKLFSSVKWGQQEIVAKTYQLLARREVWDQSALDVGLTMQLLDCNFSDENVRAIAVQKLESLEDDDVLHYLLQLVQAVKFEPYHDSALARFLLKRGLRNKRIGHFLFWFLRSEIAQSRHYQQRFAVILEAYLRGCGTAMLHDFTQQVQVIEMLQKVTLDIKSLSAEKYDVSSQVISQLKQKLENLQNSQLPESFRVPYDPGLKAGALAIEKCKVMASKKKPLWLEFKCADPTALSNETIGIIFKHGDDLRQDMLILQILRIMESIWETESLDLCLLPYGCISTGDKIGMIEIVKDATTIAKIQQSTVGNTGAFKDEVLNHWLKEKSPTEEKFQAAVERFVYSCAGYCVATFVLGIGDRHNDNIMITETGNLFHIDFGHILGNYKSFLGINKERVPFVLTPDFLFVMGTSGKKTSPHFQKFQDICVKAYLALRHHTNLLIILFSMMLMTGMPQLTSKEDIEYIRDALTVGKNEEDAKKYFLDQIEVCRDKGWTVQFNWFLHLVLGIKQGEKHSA
# Sequence of PI3Kα (P42336 whole entry, species assumed): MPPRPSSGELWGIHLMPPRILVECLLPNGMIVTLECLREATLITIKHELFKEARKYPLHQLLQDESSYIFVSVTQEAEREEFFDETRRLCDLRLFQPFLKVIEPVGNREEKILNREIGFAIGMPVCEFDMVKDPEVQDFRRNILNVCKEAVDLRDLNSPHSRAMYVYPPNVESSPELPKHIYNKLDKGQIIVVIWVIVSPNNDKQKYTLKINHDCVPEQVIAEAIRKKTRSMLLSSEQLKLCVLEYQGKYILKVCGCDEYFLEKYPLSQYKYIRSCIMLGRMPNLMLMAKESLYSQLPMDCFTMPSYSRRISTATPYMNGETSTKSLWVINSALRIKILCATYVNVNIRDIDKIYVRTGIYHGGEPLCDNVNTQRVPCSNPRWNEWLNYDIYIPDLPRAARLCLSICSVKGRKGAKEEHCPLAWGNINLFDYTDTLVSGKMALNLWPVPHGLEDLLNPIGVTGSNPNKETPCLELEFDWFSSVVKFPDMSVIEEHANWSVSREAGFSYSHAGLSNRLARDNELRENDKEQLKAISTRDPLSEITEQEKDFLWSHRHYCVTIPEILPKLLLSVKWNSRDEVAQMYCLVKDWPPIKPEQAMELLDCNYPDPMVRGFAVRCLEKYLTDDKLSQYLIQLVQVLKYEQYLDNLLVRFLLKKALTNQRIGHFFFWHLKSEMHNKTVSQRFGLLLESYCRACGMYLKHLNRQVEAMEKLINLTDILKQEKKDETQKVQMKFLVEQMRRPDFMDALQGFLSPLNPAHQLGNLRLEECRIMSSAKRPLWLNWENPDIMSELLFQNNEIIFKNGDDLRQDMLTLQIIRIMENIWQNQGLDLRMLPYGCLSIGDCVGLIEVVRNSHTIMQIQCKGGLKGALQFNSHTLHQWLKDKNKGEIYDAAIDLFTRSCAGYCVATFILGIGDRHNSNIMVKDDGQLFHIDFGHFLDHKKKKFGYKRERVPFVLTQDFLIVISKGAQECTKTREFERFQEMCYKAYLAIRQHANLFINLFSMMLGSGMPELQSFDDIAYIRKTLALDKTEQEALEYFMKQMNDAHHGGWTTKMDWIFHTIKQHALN
# Sequence of PI3Kα (P27986 whole entry partner, species assumed): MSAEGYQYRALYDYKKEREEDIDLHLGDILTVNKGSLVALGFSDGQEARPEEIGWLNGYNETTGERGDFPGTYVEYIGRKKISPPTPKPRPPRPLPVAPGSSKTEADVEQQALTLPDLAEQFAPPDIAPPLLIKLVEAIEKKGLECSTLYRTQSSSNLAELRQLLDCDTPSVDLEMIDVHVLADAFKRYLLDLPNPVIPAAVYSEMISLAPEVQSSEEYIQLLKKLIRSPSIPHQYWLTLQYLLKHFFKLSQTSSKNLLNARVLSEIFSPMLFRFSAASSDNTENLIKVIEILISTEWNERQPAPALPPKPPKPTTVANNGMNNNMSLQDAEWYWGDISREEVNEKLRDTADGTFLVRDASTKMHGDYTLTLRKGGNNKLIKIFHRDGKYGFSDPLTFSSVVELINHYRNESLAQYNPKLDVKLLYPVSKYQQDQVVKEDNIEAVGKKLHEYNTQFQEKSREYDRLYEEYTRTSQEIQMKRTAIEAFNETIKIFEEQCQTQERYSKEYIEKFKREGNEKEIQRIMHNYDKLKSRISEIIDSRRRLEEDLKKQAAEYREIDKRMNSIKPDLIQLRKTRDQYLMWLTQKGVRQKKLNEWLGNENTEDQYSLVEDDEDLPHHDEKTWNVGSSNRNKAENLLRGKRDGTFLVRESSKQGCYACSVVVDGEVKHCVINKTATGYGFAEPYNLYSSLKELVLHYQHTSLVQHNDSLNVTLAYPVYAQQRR
SMILES,IC50 [1],IC50 [2],IC50 [3]
"COc1ccccc1-c1ccnc2c1c(/C=C1\Oc3cc(O)cc(O)c3C1=O)cn2C [Compound 14, (2Z)-4,6-dihydroxy-2-{[4-(2-methoxyphenyl)-1-methyl-1H-pyrrolo[2,3-b]pyridin-3-yl]methylene}-1-benzofuran-3(2H)-one]",188 nM,220 nM,1.4 nM
"Cn1cc(/C=C2\Oc3cc(O)cc(O)c3C2=O)c2c(-c3cccc(NS(C)(=O)=O)c3)ccnc21 [Compound 18, N-(3-{3-[(Z)-(4,6-dihydroxy-3-oxo-1-benzofuran-2(3H)-ylidene)methyl]-1-methyl-1H-pyrrolo[2,3-b]pyridin-4-yl}phenyl)methanesulfonamide]",19 nM,106 nM,2.7 nM
"Cn1cc(/C=C2\Oc3cccc(O)c3C2=O)c2c(-c3cccc(S(N)(=O)=O)c3)ccnc21 [Compound 21, 3-{3-[(Z)-(4-hydroxy-3-oxo-1-benzofuran-2(3H)-ylidene)methyl]-1-methyl-1H-pyrrolo[2,3-b]pyridin-4-yl}benzenesulfonamide]",34 nM,140 nM,3.5 nM
"COc1ccc2[nH]cc(/C=C3\Oc4cc(O)cc(O)c4C3=O)c2n1 [Compound 26, (2Z)-4,6-dihydroxy-2-[(5-methoxy-1H-pyrrolo[3,2-b]pyridin-3-yl)methylene]-1-benzofuran-3(2H)-one]",233 nM,1580 nM,> 4000 nM
"Cn1c(-c2ccccc2)c(/C=C2\Oc3cc(O)cc(O)c3C2=O)c2cccnc21 [Compound 27, (2Z)-4,6-dihydroxy-2-[(1-methyl-2-phenyl-1H-pyrrolo[2,3-b]pyridin-3-yl)methylene]-1-benzofuran-3(2H)-one]",820 nM,4000 nM,50 nM
"Cn1c(-c2ccccc2)c(/C=C2\Oc3cc(O)ccc3C2=O)c2cccnc21 [Compound 28, (2Z)-6-hydroxy-2-[(1-methyl-2-phenyl-1H-pyrrolo[2,3-b]pyridin-3-yl)methylene]-1-benzofuran-3(2H)-one]",5120 nM,5180 nM,2500 nM
"Cn1c(-c2ccccc2)c(/C=C2\Oc3cccc(O)c3C2=O)c2cccnc21 [Compound 29, (2Z)-4-hydroxy-2-[(1-methyl-2-phenyl-1H-pyrrolo[2,3-b]pyridin-3-yl)methylene]-1-benzofuran-3(2H)-one]",3670 nM,8000 nM,2700 nM
"Cn1cc(/C=C2\Oc3cc(O)cc(O)c3C2=O)c2c(N3CCOCC3)ccnc21 [Compound 45, (2Z)-4,6-dihydroxy-2-[(1-methyl-4-morpholin-4-yl-1H-pyrrolo[2,3-b]pyridin-3-yl)methylene]-1-benzofuran-3(2H)-one]",12 nM,131 nM,0.3 nM
"CN1CCN(c2ccnc3c2c(/C=C2\Oc4cccc(O)c4C2=O)cn3C)CC1 [Compound 47, (2Z)-4-hydroxy-2-{[1-methyl-4-(4-methylpiperazin-1-yl)-1H-pyrrolo[2,3-b]pyridin-3-yl]methylene}-1-benzofuran-3(2H)-one]",173 nM,645 nM,2.8 nM
"Cn1cc(/C=C2\Oc3cccc(O)c3C2=O)c2c(N3CCOCC3)ccnc21 [Compound 48, (2Z)-4-hydroxy-2-[(1-methyl-4-morpholin-4-yl-1H-pyrrolo[2,3-b]pyridin-3-yl)methylene]-1-benzofuran-3(2H)-one]",53 nM,184 nM,2.2 nM
"Cn1cc(/C=C2\Oc3cc(O)cc(O)c3C2=O)c2c(N3CCC(O)CC3)ccnc21 [Compound 50, (2Z)-4,6-dihydroxy-2-{[4-(4-hydroxypiperidin-1-yl)-1-methyl-1H-pyrrolo[2,3-b]pyridin-3-yl]methylene}-1-benzofuran-3(2H)-one]",23 nM,177 nM,0.2 nM
"Cn1cc(/C=C2\Oc3cc(O)cc(O)c3C2=O)c2c(/C=C/c3ccccc3)ccnc21 [Compound 51, (2Z)-4,6-dihydroxy-2-({1-methyl-4-[(E)-2-phenylvinyl]-1H-pyrrolo[2,3-b]pyridin-3-yl}methylene)-1-benzofuran-3(2H)-one]",47 nM,92 nM,3.4 nM
"Cn1cc(/C=C2\Oc3cc(O)cc(O)c3C2=O)c2c(N3CC4CCC(C3)O4)ccnc21 [Compound 54, (2Z)-4,6-dihydroxy-2-{[1-methyl-4-(8-oxa-3-azabicyclo[3.2.1]oct-3-yl)-1H-pyrrolo[2,3-b]pyridin-3-yl]methylene}-1-benzofuran-3(2H)-one]",11 nM,70 nM,0.1 nM

# Further lines, results first:
IC50 [1],IC50 [2],IC50 [3],SMILES
24 nM,247 nM,5 nM,"Cn1cc(/C=C2\Oc3cc(O)cc(O)c3C2=O)c2c(-c3ccc(OCCn4ccnc4)cc3)ccnc21 [Compound 16, (2Z)-4,6-dihydroxy-2-[(4-{4-[2-(1H-imidazol-1-yl)ethoxy]phenyl}-1-methyl-1H-pyrrolo[2,3-b]pyridin-3-yl)methylene]-1-benzofuran-3(2H)-one]"
7 nM,57 nM,0.3 nM,"Cn1cc(/C=C2\Oc3cc(O)cc(O)c3C2=O)c2c(-c3ccc(S(N)(=O)=O)cc3)ccnc21 [Compound 17, 4-{3-[(Z)-(4,6-dihydroxy-3-oxo-1-benzofuran-2(3H)-ylidene)methyl]-1-methyl-1H-pyrrolo[2,3-b]pyridin-4-yl}benzenesulfonamide]"
14 nM,35 nM,0.5 nM,"Cn1cc(/C=C2\Oc3cc(O)cc(O)c3C2=O)c2c(-c3ccc(O)cc3)ccnc21 [Compound 19, (2Z)-4,6-dihydroxy-2-{[4-(4-hydroxyphenyl)-1-methyl-1H-pyrrolo[2,3-b]pyridin-3-yl]methylene}-1-benzofuran-3(2H)-one]"
6 nM,44 nM,0.2 nM,"Cn1cc(/C=C2\Oc3cc(O)cc(O)c3C2=O)c2c(-c3ccc(C(N)=NO)cc3)ccnc21 [Compound 20, 4-{3-[(Z)-(4,6-dihydroxy-3-oxo-1-benzofuran-2(3H)-ylidene)methyl]-1-methyl-1H-pyrrolo[2,3-b]pyridin-4-yl}-N′-hydroxybenzenecarboximidamide]"
95 nM,93 nM,0.5 nM,"Cn1cc(/C=C2\Oc3cc(O)cc(O)c3C2=O)c2c(-c3ccccc3)ccnc21 [Compound 24, (2Z)-4,6-dihydroxy-2-[(1-methyl-4-phenyl-1H-pyrrolo[2,3-b]pyridin-3-yl)methylene]-1-benzofuran-3(2H)-one]"
85 nM,84 nM,0.5 nM,"CN(C)c1ccc(-c2ccnc3c2c(/C=C2\Oc4cc(O)cc(O)c4C2=O)cn3C)cc1 [Compound 25, (2Z)-2-({4-[4-(dimethylamino)phenyl]-1-methyl-1H-pyrrolo[2,3-b]pyridin-3-yl}methylene)-4,6-dihydroxy-1-benzofuran-3(2H)-one]"
8 nM,38 nM,0.6 nM,"Cn1cc(/C=C2\Oc3cc(O)cc(O)c3C2=O)c2c(-c3cccnc3)ccnc21 [Compound 33, (2Z)-4,6-dihydroxy-2-[(1-methyl-4-pyridin-3-yl-1H-pyrrolo[2,3-b]pyridin-3-yl)methylene]-1-benzofuran-3(2H)-one]"
6 nM,38 nM,0.2 nM,"Cn1cc(/C=C2\Oc3cc(O)cc(O)c3C2=O)c2c(-c3ccc(C(N)=O)cc3)ccnc21 [Compound 34, 4-{3-[(Z)-(4,6-dihydroxy-3-oxo-1-benzofuran-2(3H)-ylidene)methyl]-1-methyl-1H-pyrrolo[2,3-b]pyridin-4-yl}benzamide]"
11 nM,51 nM,0.4 nM,"CC(=O)Nc1ccc(-c2ccnc3c2c(/C=C2\Oc4cc(O)cc(O)c4C2=O)cn3C)cc1 [Compound 35, N-(4-{3-[(Z)-(4,6-dihydroxy-3-oxo-1-benzofuran-2(3H)-ylidene)methyl]-1-methyl-1H-pyrrolo[2,3-b]pyridin-4-yl}phenyl)acetamide]"
7 nM,36 nM,0.3 nM,"Cn1cc(/C=C2\Oc3cc(O)cc(O)c3C2=O)c2c(-c3ccc(NS(C)(=O)=O)cc3)ccnc21 [Compound 36, N-(4-{3-[(Z)-(4,6-dihydroxy-3-oxo-1-benzofuran-2(3H)-ylidene)methyl]-1-methyl-1H-pyrrolo[2,3-b]pyridin-4-yl}phenyl)methanesulfonamide]"
24 nM,141 nM,0.4 nM,"Cn1cc(/C=C2\Oc3cc(O)cc(O)c3C2=O)c2c(-c3ccc(N)cc3)ccnc21 [Compound 41, (2Z)-2-{[4-(4-aminophenyl)-1-methyl-1H-pyrrolo[2,3-b]pyridin-3-yl]methylene}-4,6-dihydroxy-1-benzofuran-3(2H)-one]"
19 nM,66 nM,0.4 nM,"CNc1ccc(-c2ccnc3c2c(/C=C2\Oc4cc(O)cc(O)c4C2=O)cn3C)cc1 [Compound 43, (2Z)-4,6-dihydroxy-2-({1-methyl-4-[4-(methylamino)phenyl]-1H-pyrrolo[2,3-b]pyridin-3-yl}methylene)-1-benzofuran-3(2H)-one]"
25 nM,83 nM,0.2 nM,"Cn1cc(/C=C2\Oc3cc(O)cc(O)c3C2=O)c2c(-c3ccc(N4CCOCC4)cc3)ccnc21 [Compound 49, (2Z)-4,6-dihydroxy-2-{[1-methyl-4-(4-morpholin-4-ylphenyl)-1H-pyrrolo[2,3-b]pyridin-3-yl]methylene}-1-benzofuran-3(2H)-one]"
123 nM,199 nM,0.6 nM,"CN(C)c1cccc(-c2ccnc3c2c(/C=C2\Oc4cc(O)cc(O)c4C2=O)cn3C)c1 [Compound 52, (2Z)-2-({4-[3-(dimethylamino)phenyl]-1-methyl-1H-pyrrolo[2,3-b]pyridin-3-yl}methylene)-4,6-dihydroxy-1-benzofuran-3(2H)-one]"
